# Results as given in PMC12290960, “Eremanthus erythropappus as a Source of Antiparasitic Agents: In Vitro and In Vivo Efficacy against Schistosoma mansoni” (ACS Omega, 2025).
# Legend:
# [1] = tested on: S. mansoni adult worms; test: In vitro antischistosomal assay on adult worms (mortality/viability by motility); assay type: cell-based, Schistosoma mansoni; conditions: for EC50: Schistosoma mansoni, mortality of S. mansoni adult worms, 95% CI in square brackets; for in vitro antischistosomal activity (in words): concentrations of up to 50 μM
# [2] = tested on: S. mansoni (49 day old adult infection); test: In vivo antischistosomal assay in S. mansoni-infected mice (worm burden, oogram, fecal egg count); parameters: species or system Schistosoma mansoni; conditions: for worm burden reduction (WBR): single dose 400 mg/kg p.o., treated 49 days postinfection, vs vehicle control
# Experimental: The Belo Horizonte strain of Schistosoma mansoni was maintained in its life cycle using Biomphalaria glabrata snails (intermediate hosts) and female Swiss mice (final hosts). Three week old female Swiss mice (∼20 g) were obtained from […] para Laboratório (São Paulo, Brazil). Infected snails and mice were housed under controlled conditions (25 °C, 50% humidity, and 12 h light/dark cycles) with ad libitum access to food and water. Mice were percutaneously infected with 80 S. mansoni cercariae and treated 49 days postinfection (adult worm stage). […] At 63 days postinfection, mice were euthanized (CO2), and worms were recovered by mesenteric perfusion. Worm burden reduction was calculated after sexing, , and fecal egg counts were performed as previously described. , The study complied with ARRIVE guidelines, including randomization to minimize bias.
# [3] = in vitro; conditions: African green monkey
# [4] = tested on: Vero cells; test: Cytotoxicity in mammalian cells (MTT assay); conditions: CC50 on Vero cells divided by EC50 on schistosomes
Compound,EC50 [1],worm burden reduction (WBR) [2],CC50 [3],in vitro antischistosomal activity (in words) [1],"reduction in immature egg deposition (oogram, EBR immature) ([2]; 400 mg/kg p.o., 49 day old adult infection)","reduction in number of eggs per gram of feces (egg load, EBR) ([2]; 400 mg/kg p.o., 49 day old adult infection, vs control)",CC50 at 72 h [3],SI (selectivity index) [4]
"C=C(C)[C@@H]1CC[C@]2(C(=O)O)CC[C@]3(C)[C@H](CC[C@@H]4[C@@]5(C)CC[C@H](O)C(C)(C)[C@@H]5CC[C@]43C)[C@@H]12 [betulinic acid (8), 3β-hydroxy-20(29)-lupaene-28-oic acid]",36.8 µM,41.9%,> 500 µM,,,,,
"COc1ccc(-c2cc(=O)c3c(O)cc(O)cc3o2)cc1 [acacetin (14), 5,7-dihydroxy-4′-methoxyflavone]",> 50 µM,,,inactive,,,,
O=C(C1CCCCC1)N1CC(=O)N2CCc3ccccc3C2C1 (stereo not shown) [praziquantel],0.8 µM,92.6%,,,96.8%,93.9%,> 500 µM,>625
"C[C@H]1C(=O)CC[C@@H]2[C@]1(C)CC[C@H]1[C@@]2(C)CC[C@@]2(C)[C@@H]3CC(C)(C)CC[C@]3(C)CC[C@]12C [friedelin (7), friedelan-3-one]",> 50 µM,,,inactive,,,,
